Assay results reported in patent publication US20170342025A1, “ANTIMICROBIAL COMPOUNDS, COMPOSITIONS AND METHODS” (Swansea University, priority 2014, published 2017).
Like-named read-outs stand apart in the source and are kept apart here.

Assays:
[1] = system: Escherichia coli (strain JM109); experiment: MIC determination against Escherichia coli (Andrews protocol); assay type: cell-based; settings: Escherichia coli, read-out: MIC E. coli
Experimental: (§1) Minimum Inhibitory Concentrations (MICs) for the compounds prepared were determined against Escherichia coli (strain JM109) and Staphylococcus aureus (strain 9518) using the protocols described by Andrews (J. Antimicrob. Chemother., 2001, 48, Suppl. S1, 5-16).

[2] = system: Staphylococcus aureus (strain 9518); experiment: MIC determination against Staphylococcus aureus (Andrews protocol); assay type: cell-based; settings: Staphylococcus aureus, read-out: MIC S. aureus
Experimental: as §1

[3] = system: methicillin-resistant staphylococcus aureus (MRSA) strain MRSA-III (ST239); experiment: MIC against MRSA strain MRSA-III (ST239); assay type: cell-based; settings: read-out: MIC against MRSA-III
Experimental: as §1
(§2) In addition, three compounds were tested against methicillin-resistant staphylococcus aureus (MRSA) strains MRSA-III (ST239) and EMRSA-15.

[4] = system: methicillin-resistant staphylococcus aureus (MRSA) strain EMRSA-15; experiment: MIC against MRSA strain EMRSA-15; assay type: cell-based
Experimental: as §1, §2

[5] = Staphylococcus aureus strain 9518
[6] = second MRSA strain, text names EMRSA-15, read-out: MIC against MRSA-1

Structure (SMILES): CC(=O)O.N=C(N)NN=Cc1cccc(OCc2cccc(Cl)c2Cl)c1 [Compound 49a, 1-[({3-[(2,3-dichlorophenyl)methoxy]phenyl}methylidene)amino]guanidine acetate]
- MIC ([1]; Escherichia coli strain JM109): 1 to 10 µg/mL
- MIC [2, 5]: 1 to 10 µg/mL
- MIC ([3]; MRSA-III (ST239)): 1 to 10 µg/mL
- MIC [4, 6]: 1 to 10 µg/mL
- melting point: 159 to 160 °C

Structure (SMILES): N=C(N)NCc1cccc(OCc2cccc(C(F)(F)F)c2Cl)c1.O=C(O)C(F)(F)F [Compound 4L, 1-[(3-{[2-chloro-3-(trifluoromethyl)phenyl]methoxy}phenyl)methyl]guanidine 2,2,2-trifluoroacetate]
- MIC [1]: 1 to 10 µg/mL
- MIC [2]: 10 to 32 µg/mL
- MIC ([3]; MRSA): 1 to 10 µg/mL
- MIC ([4]; MRSA, read-out: MIC against MRSA-1): 1 to 10 µg/mL

Structure (SMILES): Cl.N=C(N)N/N=C/c1cccc(OCc2cc(Cl)cc(Cl)c2Cl)c1Cl [Compound 51i, (E)-Amino(2-(2-chloro-3-((2,3,5-trichlorobenzyl)oxy)benzylidene)hydrazinyl) methaniminium chloride]
- MIC ([1]; Escherichia coli strain JM109): 32 to 100 µg/mL
- MIC [2, 5]: 32 to 100 µg/mL
- melting point: 273 to 276 °C

Structure (SMILES): N=C(N)NCc1ccc(OCc2cccc(Cl)c2Cl)cc1.O=C(O)C(F)(F)F [Compound 19e, 1-(4-((2,3-dichlorobenzyl)oxy)benzyl)guanidine 2,2,2-trifluoroacetate]
- MIC ([1]; Escherichia coli strain JM109): 1 to 10 µg/mL
- MIC [2, 5]: 10 to 32 µg/mL
- MIC ([3]; MRSA-III (ST239)): 1 to 10 µg/mL
- MIC [4, 6]: 1 to 10 µg/mL

Structure (SMILES): Cl.N=C(N)N/N=C/c1cccc(OCc2ccc(C(F)(F)F)cc2)c1Cl [Compound 51k, (E)-Amino(2-(2-chloro-3-((4-(trifluoromethyl)benzyl)oxy)benzylidene)hydrazinyl) methaniminium chloride]
- MIC ([1]; Escherichia coli strain JM109): 10 to 32 µg/mL
- MIC [2, 5]: 10 to 32 µg/mL
- melting point: 245 to 247 °C

Structure (SMILES): Cl.N=C(N)N/N=C/c1cccc(OCc2ccc(Cl)cc2Cl)c1Cl [Compound 51f, (E)-Amino(2-(2-chloro-3-((2,4-dichlorobenzyl)oxy)benzylidene)hydrazinyl) methaniminium chloride]
- MIC ([1]; Escherichia coli strain JM109): 1 to 10 µg/mL
- MIC [2, 5]: 32 to 100 µg/mL
- melting point: 268 to 270 °C

Structure (SMILES): Cl.N=C(N)N/N=C/c1cccc(OCc2cccc(Cl)c2Cl)c1Cl [Compound 51d, (E)-Amino(2-(2-chloro-3-((2,3-dichlorobenzyl)oxy)benzylidene)hydrazinyl) methaniminium chloride]
- MIC ([1]; Escherichia coli strain JM109): 1 to 10 µg/mL
- MIC [2, 5]: 32 to 100 µg/mL
- melting point: 250 to 253 °C

Structure (SMILES): Cl.N=C(N)N/N=C/c1cccc(OCc2ccc(Cl)c(Cl)c2)c1Cl [Compound 51h, (E)-Amino(2-(2-chloro-3-((3,4-dichlorobenzyl)oxy)benzylidene)hydrazinyl) methaniminium chloride]
- MIC ([1]; Escherichia coli strain JM109): 1 to 10 µg/mL
- MIC [2, 5]: 1 to 10 µg/mL
- melting point: 230 to 233 °C
